Source: US12552760B2, “Compounds for increasing the nicotinamide adenine dinucleotide in a subject and methods of use thereof” (The Board of Trustees of the University of Illinois, priority 2022, dated 2026)
Like-named read-outs stand apart in the source and are kept apart here. One block for each compound: values may come before it.

Tests used:
[1] = system: APPSwe/PSEN1dE9 N2A cells; settings: 10 mM, 72 h; Long, A. N. et al. 2015; cited from earlier work
[2] = system: Sprague-Dawley rats; settings: 500 mg/kg (i.p.) 2 h after MCAO for 22 hrs; Koh, P. 2013; cited from earlier work
[3] = system: 3xTgAD mice; settings: 40 mg/kg/d (p.o.) 8 months; Liu, D. et al. 2013; cited from earlier work
[4] = system: Wistar rats; settings: 100, 300, 500 mg/kg (i.p.) 8 days; Sidhu, A. et al. 2018; cited from earlier work
[5] = system: C57BL/6 mice; settings: 125, 250, 500 mg/kg (i.p.) 1 day (acute), 5 days (sub-acute); Anderson, D. W. et al. 2008; cited from earlier work
[6] = system: HT22; settings: 0.1 mM & 1.0 mM, 24 h; Koh, P. 2013; cited from earlier work
[7] = system: Brown Norway rats and C57BL/6 mice; settings: 200-400 mg/kg/d (p.o., rats), 500 mg/kg/d (p.o., mice), various treatment times; Tribble J. R. et al. 2021; cited from earlier work
[8] = system: cultured primary neurons; settings: 2-4 mM, 6 h; Liu, D. et al. 2013; cited from earlier work
[9] = system: Sprague-Dawley rats; settings: 100 mg/kg (i.p.) every other day for 3 months; Chandrasekaran, K. et al. 2020; cited from earlier work
[10] = system: hSOD1^G93A mouse derived astrocytes and motor neurons; settings: NR or NMN, 5 mM, 24-72 h; Harlan, B. A. et al. 2019; cited from earlier work
[11] = system: CD1 mice; settings: 300 mg/kg 30 minutes post ICH from tail veil for 24 h or 7 days with (300 mg/kg/d); Wei, C. C. et al. 2017; cited from earlier work
[12] = system: Wistar rats; settings: 500 mg/kg/d (i.p.) 10 days; hippocampal slices treated with 10 μM oAβ1-42 for 6 h +/− 1 mM NMN; Wang, X. et al. 2016; cited from earlier work
[13] = system: APPSwe/PSEN1dE9 mice; settings: 100 mg/kg every other day for 28 days; Long, A. N. et al. 2015; cited from earlier work
[14] = system: CL2355 worms; settings: 5 mM, 2 nematode generations; Fang, E. F. et al. 2019; cited from earlier work
[15] = system: APPSwe/PSEN1dE9 mice; settings: 100 mg/kg (s.c.) every other day for 28 days; Yao Z. et al. 2017; cited from earlier work
[16] = system: HT-22 mouse hippocampal cell line; experiment: TNFα-induced ROS in HT-22 cells (MitoSOX); format: cell-based; settings: screened against 1 μg/mL TNFα (FIG. 2A)
Protocol: Cell Culture and Drug Treatments. HT22 mouse hippocampal neuronal cells (a gift from the Salk Institute) were grown in Dulbecco's modified Eagle's medium (DMEM) containing 10% FBS and 1× Antibiotic-Antimycotic (ABAM). Cells were maintained in a humidified 5% CO2 atmosphere incubator at 37° C., and were passaged when 60-80% confluent (1-2 days) by removing media, rinsing with phosphate buffered saline (PBS), and enzymatically detaching with trypsin solution. New culture dishes were seeded with ¼ to ½ the cells from the previous dish.
All assays were performed using cells with passage number 12-50. The inner 60 wells of black-walled (Corning®3603/3604) 96-well plates were treated with poly D-lysine (30 μL/well) making sure to cover the entire well surface for 15-30 seconds and then washed thoroughly with sterile water (3×−200 μL/well). TNFα stock solutions (10 μg/mL, PBS (0.1% BSA)) were made, aliquoted, and stored at −80° C. Glutamate stock solutions were made fresh immediately before assay. All compound stock solutions (10 mM, DMSO) were made and stored at −20° C.
Cells were plated at a seeding density of 3,000-5,000 cells/well and allowed to incubate overnight. The next day (18-24 hours later) cells were pretreated with N-PAMs, carefully ensuring equivalent vehicle (DMSO/PBS) composition in each well. After 18-24 hours, stressors (glutamate or TNFα) were treated. Live cell count, ROS level, and total cell count were then assessed after another 18-24 hours.
ROS Detection. ROS levels were quantified using MitoSOX Red Mitochondrial Superoxide Indicator (Invitrogen). At treatment endpoint, the cell culture media was removed and replaced with phosphate buffered saline (PBS) containing 1 μM calcein-AM, 5 μM MitoSOX, and 10 μg/mL Hoechst dyes. Cells were incubated for 30-45 minutes and then dye-containing PBS was dumped and replaced with 100 μL/well fresh PBS. The plate was immediately analyzed in the Celigo Imaging Cytometer using the Live-Dead-Total protocol, where MitoSOX was used in place of propidium iodide. The cell counts and fluorescence intensities for living (calcein), MitoSOX-stained, and total (Hoechst) were acquired. MitoSOX average mean fluorescence intensity (“dead” average mean intensity) was used to quantify mitochondrial ROS. All readouts used were transformed into fold-change over vehicle treatment for visualization.
We set out to design assays representing the connection between OS and the multifaceted pathophysiology of aging and ND. We assessed multiple treatments in several cell lines to model OS induced by diverse factors such as neuroinflammatory signaling, neurotransmitter signaling, and direct oxidant species. Assay development highlighted the neuronal HT-22 mouse hippocampal cell line as most robust for these purpose s, and inflammatory cytokine TNFα as being a reliable and disease-relevant method for inducing ROS generation.

[17] = biological target: T1, NAMPT (Homo sapiens, UniProt P43490); experiment: NP-A3-B2:NAMPT co-crystal structure (X-ray diffraction); settings: NP-A3-B2, NAM and NAMPT; 1.3-1.5 Å resolution
T1 construct: His6 (C); made in house
Protocol: X-ray diffraction crystallography. Crystals of NAMPT complexed with NAM and N-PAM were grown by hanging drop vapor diffusion at 16° C. Prior to crystallization, 11 mg/mL NAMPT protein was incubated with 10 mM NAM and 1 mM compound for 30 min on ice. Crystals of the complex were grown by mixing 1-2 μL of NAMPT complex with 2 μL of reservoir solution containing 0.1 M Tris-HCl, pH 8, 0.1 M KCl, and 24-28% PEG 2000 MME or 0.1 M Tris-HCl, pH 8.5, 0.2 M NaCl, 20% glycerol and 13-18% PEG 3350. Crystals grew overnight from the PEG 2000 MME conditions and were used to streak seed drops of NAMPT complex equilibrating against the PEG 3350 conditions.
Data collection and structure refinement. The glycerol present in the crystallization solution was sufficient to cryo-protect crystals, which were flash-cooled in liquid nitrogen. Data were collected on a MAR300 detector at 0.979 Å at the Life Sciences Collaborative Access Team beamline 21-ID-F at the Advanced Photon Source, Argonne National Laboratory. Data indexing, integration, and scaling were performed using XDS, and phases were determined by molecular replacement using Molrep and a NAMPT-NAM co-crystal structure (PDB entry: 2E5D) as search model. Rigid body refinement followed by iterative rounds of restrained refinement and model building were performed with Phenix and Coot.

[18] = biological target: T1, NAMPT; experiment: NAMPT coupled enzyme activity assay (HTS coupled three-enzyme assay); format: biochemical; settings: dose-response (FIG. 1B)
Text: NAMPT coupled enzyme activity assay. The NAMPT enzyme assay is based on conditions from Burgos and Schramm and adapted to include a cycling reaction to quantitate NAD^+ production colorimetrically^1. The assay follows the NAMPT-catalyzed production of NMN from substrates NAM and PRPP by coupling NMN formation to the NMNAT reaction, which produces NAD^+ from NMN and ATP. The NAD^+ is then cycled by alcohol dehydrogenase (ADH) and diaphorase to continuously produce WST-1 formazan, which can be detected at 450 nm. Assays are performed at 25° C. in clear 384-well plates, with a final assay volume of 30 μL, and contain the following: 50 mM HEPES, pH 7.5, 5 mM MgCl2, 50 mM NaCl, 0.01% Triton-X 100, 2.5 mM ATP, 40 μM PRPP, 1-500 μM NAM, 1.5 μL WST-1 (Roche Cell Proliferation Reagent), 1 U/mL ADH, 0.083 U/mL diaphorase, 1.5% ethanol, 1% DMSO, 30 nM NAMPT, and 7.4 nM purified human NMNAT1. N-terminal His6-NMNAT1 and C-terminal His6-NAMPT were overexpressed and purified by metal chelate affinity chromatography. Following assay assembly, well signals were measured continuously at 450 nm on a Tecan Infinite M200 plate reader for 1 h with intermittent shaking. Slopes of the linear portions of the reaction progress curves were recorded and corrected for background by subtracting the average slope of control wells containing NAMPT inhibitor FK866.
A high-throughput screen (HTS) of 22,000 compounds was performed to identify those that augment NAMPT enzymatic activity^38. Screening used a coupled three-enzyme assay to detect conversion of NAM to NAD^+, as previously described by our group^37. […] We also established assays in which to assess the ability of our compounds to mitigate neuronal oxidative stress.

[19] = system: THP-1 human monocytes; experiment: Measurement of cellular NAD^+ levels in THP-1 cell cultures (NAD/NADH-Glo); format: cell-based; settings: dose response study, 30 μM (FIG. 1A)
Protocol: Measurement of cellular NAD^+ levels in THP-1 cell cultures. Using FK-866 and NMN as negative and positive controls, respectively, we explored a number of cell lines to select a highly reproducible model system with good dynamic range. We optimized a commercial NAD-glo assay in the THP-1 human leukemic monocyte cell line in 96-well plates, measuring NAD^+ after incubation with test compounds for 24 hours. […] All cells were grown at 37° C., under 5% CO2 in a humidified incubator. Low passage THP-1 cells (37,500 cells/well) were seeded in 96-well plates and incubated at 37° C. and 5% CO2 for 1½ h prior to a 24 h treatment. All compounds were dissolved in DMSO, and final DMSO concentrations never exceeded 1%. The NAD^+ levels in the cells are measured using the NAD^+/NADH-Glo™ assay (Promega). The assays were performed in triplicate for each concentration and the IC50 values were determined from non-linear regression analysis of the dose-response curve generated in GraphPad Prism 9.

T1 sequence (P43490 whole entry): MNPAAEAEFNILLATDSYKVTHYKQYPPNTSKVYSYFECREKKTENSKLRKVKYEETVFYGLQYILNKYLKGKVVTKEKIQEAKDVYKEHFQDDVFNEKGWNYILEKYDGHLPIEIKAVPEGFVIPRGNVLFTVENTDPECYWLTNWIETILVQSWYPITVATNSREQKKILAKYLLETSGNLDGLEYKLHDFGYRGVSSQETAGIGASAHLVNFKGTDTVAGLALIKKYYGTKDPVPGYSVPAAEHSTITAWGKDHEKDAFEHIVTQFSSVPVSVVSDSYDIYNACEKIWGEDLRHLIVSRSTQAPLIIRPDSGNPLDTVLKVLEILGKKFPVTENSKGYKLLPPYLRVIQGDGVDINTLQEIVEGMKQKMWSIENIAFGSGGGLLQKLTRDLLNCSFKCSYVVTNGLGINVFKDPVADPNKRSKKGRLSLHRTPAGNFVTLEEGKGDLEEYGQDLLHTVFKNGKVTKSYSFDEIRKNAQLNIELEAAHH

SMILES: NC(=O)c1ccc[n+]([C@@H]2O[C@H](COP(=O)([O-])OP(=O)(O)OC[C@H]3O[C@@H](n4cnc5c(N)ncnc54)[C@H](O)[C@@H]3O)[C@@H](O)[C@H]2O)c1 [NAD^+, Nicotinamide adenine dinucleotide]
mitochondrial deficits [1]: Reversed

SMILES: NC(=O)c1cccnc1 [NAM, nicotinamide]
Decreased infarct volume [2]: volume by 60%
hippocalcin depletion [2]: Prevented
Aβ and p-Tau [3]: Decreased Aβ
cognitive decline [3]: Ameliorated
Neuroprotection [4]: Neuroprotection
motor function [4]: Improved motor
oxidative stress [4]: Prevented
dopamine concentration in both paradigms [5]: Recovered
Neuroprotection [6]: Neuroprotection
hippocalcin (crucial neuronal protein) depletion [6]: Prevented
Retinal ganglion neuroprotection [7]: neuroprotection
metabolic disruption [7]: Prevented
mitochondrial function [7]: Improved
Neuroprotection [8]: Neuroprotection

SMILES: NC(=O)c1ccc[n+]([C@@H]2O[C@H](COP(=O)([O-])O)[C@@H](O)[C@H]2O)c1 [NMN, nicotinamide mononucleotide]
Neuroprotective [9]: Neuroprotective
brain NAD^+, metabolites, and neurotransmitters [9]: Normalized brain
hippocampal CA1 volume [9]: Preserved
memory [9]: Improved memory
mitochondrial function [9]: Improved
Nrf2 mediated Antioxidant Response Element activation [10]: Increased Nrf2
Neuroprotective [11]: Neuroprotective
acute brain injury [11]: Protected against
motor function recovery over 7 days [11]: Enhanced motor
oxidative stress and neuroinflammation [11]: Reduced
LTP [12]: Improved LTP
NAD^+ and ATP [12]: · Restored NAD^+
Neuroprotection [12]: Neuroprotection
oxidative stress [12]: Attenuated
spatial learning and memory [12]: Improved spatial
APP levels [13]: Decreased APP
mitochondrial deficits [13]: Reversed
cognitive decline and memory impairment [14]: Ameliorated
APP processing [15]: Biased APP to α
Aβ aggregation [15]: · Decreased Aβ
cognitive impairments [15]: Prevented
neuroinflammation [15]: Decreased
synaptic loss [15]: Prevented

EC50 ([18]; NAMPT activation): 4.05 µM
Amax [18]: 1.85 fold
SMILES: COc1ccc(CN(CCC2(C(C)C)CCOC(C)(C)C2)C(=O)c2ccco2)cc1 (centres unmarked) [NP-A3-B2, N-[(4-Methoxyphenyl)methyl]-N-[2-[tetrahydro-2,2-dimethyl-4-(1-methylethyl)-2H-pyran-4-yl]ethyl]-2-furancarboxamide]
effect on ROS levels across tested concentrations [16]: little effect until 40 μM
binding mode in co-crystal structure [17]: allosteric binding of the hit to the NAMPT rear channel
NAD^+ fold over control [19]: 1.18 fold
increase in NAD^+ over control [19]: 18%
